Assay results as given in the supplement of paper PMC5662764.
± gives the standard deviation of the averaged measurements.

How the values were obtained:
Experiment in all cases: normalised growth rate inhibition (GR value) relative to DMSO control (GR (1 = untreated growth, 0 = cytostasis, <0 = cytotoxic)); higher = less growth inhibition
Conditions in all cases: 72 h
[1] = test system: MDAMB231
Protocol: (§1)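 Breast cancer cell lines (BT-20, Hs 578T, MCF 10A, MCF7, MDA-MB-231, SK-BR-3) were plated in 384-well plates and treated 24 h later with drugs at six concentrations (0.04-10 µM). Viable cells were counted by Hoechst/dead-cell-stain imaging at 0 and 72 h. Counts were normalised to DMSO controls on the same plate to give the relative cell count and the growth-rate inhibition (GR) value; technical plate triplicates were averaged for each biological replicate.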

[2] = test system: BT20
Protocol: as §1

[3] = test system: MCF7
Protocol: as §1

[4] = test system: HS578T
Protocol: as §1

[5] = test system: MCF10A
Protocol: as §1

[6] = test system: SKBR3
Protocol: as §1

| Compound | normalised growth rate inhibition ([1]; 0.04 µM) | normalised growth rate inhibition ([1]; 0.12 µM) | normalised growth rate inhibition ([1]; 0.37 µM) | normalised growth rate inhibition ([1]; 1.11 µM) | normalised growth rate inhibition ([1]; 3.33 µM) | normalised growth rate inhibition ([1]; 10 µM) | normalised growth rate inhibition ([2]; 0.04 µM) | normalised growth rate inhibition ([2]; 0.12 µM) | normalised growth rate inhibition ([2]; 0.37 µM) | normalised growth rate inhibition ([2]; 1.11 µM) | normalised growth rate inhibition ([2]; 3.33 µM) | normalised growth rate inhibition ([2]; 10 µM) | normalised growth rate inhibition ([3]; 0.04 µM) | normalised growth rate inhibition ([3]; 0.12 µM) | normalised growth rate inhibition ([3]; 0.37 µM) | normalised growth rate inhibition ([3]; 1.11 µM) | normalised growth rate inhibition ([3]; 3.33 µM) | normalised growth rate inhibition ([3]; 10 µM) | normalised growth rate inhibition ([4]; 0.04 µM) | normalised growth rate inhibition ([4]; 0.12 µM) | normalised growth rate inhibition ([4]; 0.37 µM) | normalised growth rate inhibition ([4]; 1.11 µM) | normalised growth rate inhibition ([4]; 3.33 µM) | normalised growth rate inhibition ([4]; 10 µM) | normalised growth rate inhibition ([5]; 0.04 µM) | normalised growth rate inhibition ([5]; 0.12 µM) | normalised growth rate inhibition ([5]; 0.37 µM) | normalised growth rate inhibition ([5]; 1.11 µM) | normalised growth rate inhibition ([5]; 3.33 µM) | normalised growth rate inhibition ([5]; 10 µM) | normalised growth rate inhibition ([6]; 0.04 µM) | normalised growth rate inhibition ([6]; 0.12 µM) | normalised growth rate inhibition ([6]; 0.37 µM) | normalised growth rate inhibition ([6]; 1.11 µM) | normalised growth rate inhibition ([6]; 3.33 µM) | normalised growth rate inhibition ([6]; 10 µM) |
| --- | --- | --- | --- | --- | --- | --- | --- | --- | --- | --- | --- | --- | --- | --- | --- | --- | --- | --- | --- | --- | --- | --- | --- | --- | --- | --- | --- | --- | --- | --- | --- | --- | --- | --- | --- | --- |
| N#CC(c1ccnc(NCCc2cccnc2)n1)c1nc2ccccc2s1 (stereo not drawn) | 0.906 ± 0.026 | 0.905 ± 0.023 | 0.92 ± 0.023 | 0.94 ± 0.066 | 0.95 ± 0.096 | 0.726 ± 0.076 | 0.879 ± 0.031 | 0.922 ± 0.034 | 0.999 ± 0.044 | 1.03 ± 0.05 | 1.05 ± 0.035 | 1 ± 0.11 | 0.812 ± 0.044 | 0.877 ± 0.091 | 0.923 ± 0.12 | 0.883 ± 0.076 | 0.945 ± 0.085 | 0.659 ± 0.071 | 0.988 ± 0.016 | 1.01 ± 0.022 | 1.023 ± 0.0087 | 1.025 ± 0.0078 | 1.03 ± 0.023 | 0.932 ± 0.06 | 0.993 ± 0.015 | 0.986 ± 0.011 | 0.982 ± 0.011 | 0.987 ± 0.012 | 0.987 ± 0.016 | 0.707 ± 0.14 | 0.669 ± 0.056 | 0.809 ± 0.11 | 0.876 ± 0.081 | 0.84 ± 0.098 | 0.749 ± 0.13 | 0.383 ± 0.056 |
| Cc1cc([C@@H](C)Nc2ccccc2C(=O)O)c2nc(N3CCOCC3)cc(=O)n2c1 [AZD-6482] | 0.932 ± 0.013 | 0.888 ± 0.0098 | 0.867 ± 0.023 | 0.752 ± 0.083 | 0.648 ± 0.11 | 0.446 ± 0.21 | 0.974 ± 0.05 | 0.895 ± 0.079 | 0.758 ± 0.059 | 0.52 ± 0.078 | 0.245 ± 0.08 | -0.0918 ± 0.069 | 1.05 ± 0.078 | 0.954 ± 0.065 | 0.988 ± 0.066 | 0.906 ± 0.029 | 0.673 ± 0.078 | 0.0729 ± 0.13 | 0.929 ± 0.03 | 0.89 ± 0.023 | 0.855 ± 0.034 | 0.768 ± 0.039 | 0.678 ± 0.092 | 0.337 ± 0.16 | 0.993 ± 0.019 | 0.952 ± 0.056 | 0.938 ± 0.055 | 0.891 ± 0.094 | 0.842 ± 0.14 | 0.36 ± 0.24 | 0.988 ± 0.013 | 0.915 ± 0.063 | 1 ± 0.077 | 0.87 ± 0.072 | 0.404 ± 0.078 | -0.107 ± 0.21 |
| COc1cc(N2CCC(N3CCN(C)CC3)CC2)ccc1Nc1ncc(Cl)c(Nc2ccccc2S(=O)(=O)C(C)C)n1 [NVP-TAE684] | 0.908 ± 0.035 | 0.737 ± 0.11 | 0.694 ± 0.089 | 0.389 ± 0.14 | 0.117 ± 0.14 | -0.228 ± 0.21 | 1.04 ± 0.012 | 0.776 ± 0.2 | 0.972 ± 0.088 | 0.829 ± 0.13 | 0.447 ± 0.3 | 0.133 ± 0.28 | 0.553 ± 0.22 | 0.133 ± 0.13 | -0.0107 ± 0.12 | -0.108 ± 0.053 | -0.129 ± 0.021 | -0.198 ± 0.18 | 0.885 ± 0.041 | 0.61 ± 0.098 | 0.609 ± 0.073 | 0.351 ± 0.11 | 0.111 ± 0.042 | -0.201 ± 0.15 | 0.889 ± 0.06 | 0.754 ± 0.19 | 0.647 ± 0.14 | 0.555 ± 0.12 | 0.429 ± 0.14 | 0.123 ± 0.1 | 1.08 ± 0.047 | 0.782 ± 0.2 | 0.928 ± 0.069 | 0.691 ± 0.16 | 0.197 ± 0.2 | -0.232 ± 0.068 |
